Laboratory results: ChEMBL document CHEMBL1201862, “PubChem BioAssay data set” (2004)
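1) Cells in 96-well plates. 2) Compound, 48 h, 5 concentrations. 3) Linear interpolation between surrounding doses. 4) Unreached endpoint = highest concentration. Abbreviation: GI50, concentration required for 50% inhibition of growth.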 The source made the active and inactive calls. Cut-off read from the data, not from the text of the source: active = GI50 up to about 1.1 µM and inactive = higher.

Legend:
Assay in all cases: inhibition of tumour cell growth, NCI panel, 48 h
[1] = tested on: HL-60
[2] = tested on: HCC 2998
[3] = tested on: OVCAR-5
[4] = tested on: SR
[5] = tested on: UO-31
[6] = tested on: HT-29
[7] = tested on: MDA-N
[8] = tested on: Hs-578T
[9] = tested on: OVCAR-4
[10] = tested on: HCT-116
[11] = tested on: 786-0
[12] = tested on: NCI-H522
[13] = tested on: SK-OV-3
[14] = tested on: OVCAR-8
[15] = tested on: SK-MEL-28
[16] = tested on: NCI-H226
[17] = tested on: MDA-MB-435
[18] = tested on: T47D
[19] = tested on: MDA-MB-231
[20] = tested on: ACHN

| SMILES | GI50 [1] | GI50 [2] | GI50 [3] | GI50 [4] | GI50 [5] | GI50 [6] | GI50 [7] | GI50 [8] | GI50 [9] | GI50 [10] | GI50 [11] | GI50 [12] | GI50 [13] | GI50 [14] | GI50 [15] | GI50 [16] | GI50 [17] | GI50 [18] | GI50 [19] | GI50 [20] |
| --- | --- | --- | --- | --- | --- | --- | --- | --- | --- | --- | --- | --- | --- | --- | --- | --- | --- | --- | --- | --- |
| CN(C)CCCNc1c2c(nc3ccc(Cl)cc13)CCCC2 | 15.9 µM (inactive) | 5.27 µM (inactive) | 20 µM (inactive) | 2.55 µM (inactive) | 10 µM (inactive) | 5.47 µM (inactive) | 13.5 µM (inactive) | 19.1 µM (inactive) | 15.3 µM (inactive) | 6.03 µM (inactive) | 10.5 µM (inactive) | 12.2 µM (inactive) | 23 µM (inactive) | 12.8 µM (inactive) | 18.3 µM (inactive) | 22.3 µM (inactive) | 14.9 µM (inactive) | 26.5 µM (inactive) | 13.6 µM (inactive) | 16.1 µM (inactive) |
| COC(=O)C(Cc1ccccc1)NC(=O)c1ccc(CNC(=S)NCc2cccc(CNC(=S)NCc3ccccc3)c2)cc1 (stereo not given) | > 62.5 µM (inactive) | > 35 µM (inactive) | > 34.3 µM (inactive) | > 34.6 µM (inactive) | > 35.2 µM (inactive) | > 33.7 µM (inactive) | > 32.5 µM (inactive) | > 29.9 µM (inactive) | > 32.1 µM (inactive) | > 34 µM (inactive) | > 34.6 µM (inactive) | > 32.5 µM (inactive) | > 33.9 µM (inactive) | > 31.7 µM (inactive) | > 34 µM (inactive) | > 34.1 µM (inactive) | > 34.2 µM (inactive) | > 33.7 µM (inactive) | > 34 µM (inactive) | > 34.5 µM (inactive) |
| COC(=O)C1(Cc2ccccc2C)Cc2ccc(C)cc2C1=O (stereo not given) | 15.6 µM (inactive) | 48 µM (inactive) | 89.7 µM (inactive) | 13.9 µM (inactive) | 36.6 µM (inactive) | 16.7 µM (inactive) | 29.9 µM (inactive) | 33.2 µM (inactive) | 36.6 µM (inactive) | 27.2 µM (inactive) | 45.6 µM (inactive) | 17.3 µM (inactive) | 55.2 µM (inactive) | 47.9 µM (inactive) | 79.8 µM (inactive) | 34.2 µM (inactive) | 32.3 µM (inactive) | 22.8 µM (inactive) | 42.2 µM (inactive) | 34.9 µM (inactive) |
| C[C@]12CCC(=O)[C@@H](CCC3=CC(=O)C=CC3=O)[C@@H]1CCC2=O | 2.7 µM (inactive) | 15.3 µM (inactive) | 41.5 µM (inactive) | 0.0102 µM (active) | 14.3 µM (inactive) | 25.6 µM (inactive) | 23.8 µM (inactive) | 3.97 µM (inactive) | 17.2 µM (inactive) | 15.5 µM (inactive) | 10 µM (inactive) | 2.19 µM (inactive) | 26.1 µM (inactive) | 16.1 µM (inactive) | 13.2 µM (inactive) | 20.7 µM (inactive) | 22 µM (inactive) | 9.23 µM (inactive) | 20.3 µM (inactive) | 16.6 µM (inactive) |
| Cc1c2ncccc2c(C)c2c1[nH]c1ccc(O)cc12 | 2.32 µM (inactive) | 6.3 µM (inactive) | 11.3 µM (inactive) | 1.74 µM (inactive) | 3.35 µM (inactive) | 6.87 µM (inactive) | 4.93 µM (inactive) | 1.08 µM (active) | 4.15 µM (inactive) | 4.59 µM (inactive) | 2.91 µM (inactive) | 6.22 µM (inactive) | 3.38 µM (inactive) | 4.35 µM (inactive) | 13.5 µM (inactive) | 6.68 µM (inactive) | 7.64 µM (inactive) | 8.59 µM (inactive) | 4.93 µM (inactive) | 2.02 µM (inactive) |
| C=CCN1C(=O)/C(=C/c2cccs2)N=C1SC/C=C/C | 21.3 µM (inactive) | 48.3 µM (inactive) | 65.6 µM (inactive) | 18.5 µM (inactive) | 44.2 µM (inactive) | 34.6 µM (inactive) | 24.7 µM (inactive) | 32.7 µM (inactive) | 23.3 µM (inactive) | 26.3 µM (inactive) | 36.8 µM (inactive) | 26.9 µM (inactive) | 95.3 µM (inactive) | 37.6 µM (inactive) | 54.1 µM (inactive) | > 100 µM (inactive) | 34.5 µM (inactive) | 21 µM (inactive) | 68.1 µM (inactive) | 35.5 µM (inactive) |
| C=CCc1cc(-c2cc(CC=C)c(O)c(CN(CCCl)CCCl)c2)cc(CN(CCCl)CCCl)c1O | 3.09 µM (inactive) | 15.6 µM (inactive) | 18.3 µM (inactive) | 0.627 µM (active) | 16.3 µM (inactive) | 13.7 µM (inactive) | 15.2 µM (inactive) | 37 µM (inactive) | 17.6 µM (inactive) | 11.1 µM (inactive) | 7.94 µM (inactive) | 10.9 µM (inactive) | 18.9 µM (inactive) | 12.1 µM (inactive) | 17.8 µM (inactive) | 15.6 µM (inactive) | 15.4 µM (inactive) | 8.55 µM (inactive) | 18.6 µM (inactive) | 7.69 µM (inactive) |
| COC(=O)C1=CON2C3CC4CC(C3)CC(C4)C12C (stereo not given) | > 100 µM (inactive) | > 100 µM (inactive) | > 100 µM (inactive) | > 100 µM (inactive) | > 100 µM (inactive) | > 100 µM (inactive) | > 100 µM (inactive) | > 100 µM (inactive) | > 100 µM (inactive) | > 100 µM (inactive) | > 100 µM (inactive) | > 100 µM (inactive) | > 100 µM (inactive) | > 100 µM (inactive) | > 100 µM (inactive) | > 100 µM (inactive) | > 100 µM (inactive) | > 100 µM (inactive) | > 100 µM (inactive) | > 100 µM (inactive) |
| COc1c(OC(C)=O)c(OC(C)=O)cc2c1-c1ccc(OC)c(=O)cc1C(NC(C)=O)CC2 (stereo not given) | < 0.01 µM (active) | 0.0217 µM (active) | 2.61 µM (inactive) | 0.0128 µM (active) | 4.86 µM (inactive) | 0.0198 µM (active) | < 0.01 µM (active) | < 0.01 µM (active) | 31.9 µM (inactive) | 0.0215 µM (active) | 0.027 µM (active) | 0.0114 µM (active) | 2.29 µM (inactive) | 0.0254 µM (active) | < 0.0363 µM (active) | 0.331 µM (active) | < 0.01 µM (active) | > 100 µM (inactive) | 0.0129 µM (active) | 0.439 µM (active) |
| C[C@H]1[C@H]2[C@H](C[C@@]3(C)C4=CC[C@H]5C(C)(C)[C@@H](OC6OCC(O)C(O)C6O)CC[C@@]56C[C@@]46CC[C@]23C)O[C@@]2(O)[C@@H]1OC(C)(C)[C@H]2O (stereo not given in full) | 6.47 µM (inactive) | 0.681 µM (active) | 4.75 µM (inactive) | 1.54 µM (inactive) | 3.57 µM (inactive) | 2.61 µM (inactive) | 2.28 µM (inactive) | 0.682 µM (active) | 1.92 µM (inactive) | 1.45 µM (inactive) | 1.06 µM (active) | 0.605 µM (active) | 1.74 µM (inactive) | 0.879 µM (active) | 2.48 µM (inactive) | 2.44 µM (inactive) | 0.984 µM (active) | 0.83 µM (active) | 1.81 µM (inactive) | 2.12 µM (inactive) |
| COc1ccc2c(c1)/C(=C\c1c(Cl)[nH]c3cc(C)c(OC)cc13)C(=O)N2 | 0.435 µM (active) | 1.64 µM (inactive) | 2.55 µM (inactive) | 0.357 µM (active) | 3.13 µM (inactive) | 0.889 µM (active) | 0.23 µM (active) | 0.667 µM (active) | 1.45 µM (inactive) | 0.979 µM (active) | 1.19 µM (inactive) | 1.19 µM (inactive) | 0.423 µM (active) | 1.96 µM (inactive) | 10.6 µM (inactive) | 6.04 µM (inactive) | 0.198 µM (active) | 12.9 µM (inactive) | 2.93 µM (inactive) | 1.05 µM (active) |
| COc1cc(CC(C)C(C)Cc2ccc(O)c(OC)c2)ccc1O (stereo not given) [DIHYDROGUAIARETIC ACID] | 9.4 µM (inactive) | 18.5 µM (inactive) | > 50 µM (inactive) | 9.2 µM (inactive) | 12.7 µM (inactive) | 22.5 µM (inactive) | 17.3 µM (inactive) | 8.15 µM (inactive) | 20.1 µM (inactive) | 17.4 µM (inactive) | 19.9 µM (inactive) | 9.86 µM (inactive) | 20.9 µM (inactive) | 15.6 µM (inactive) | 21 µM (inactive) | 14.2 µM (inactive) | 13 µM (inactive) | 16.3 µM (inactive) | 10.1 µM (inactive) | 13.1 µM (inactive) |
